Peptide text beside a SMILES is read from it.
How the values were obtained:
[1] = test system: pre-B-ALL G2 cells; assay: Cell toxicity assay (propidium iodide exclusion, flow cytometry); type: cell-based, human; settings: 6 and 24 h, FIG. 1
Description: FIG. 1. […] G2 cells (1×10^6/ml) were cultured in 96-well flat-bottom wells in serum free IMDEM culture medium supplemented with L-glutamine and antibiotics, for 6 and 24 h at 37° C. with the indicated peptides. Untreated cells served as a control. After treatment, cells were stained with propidium iodide (PI) and its exclusion was analyzed by flow cytometry. Data shown are the percentage of Pr (dead) cells. Vertical bars represent standard deviation of duplicate experiments. *P<0.05 compared to untreated control.
Pre-B-ALL G2 cells and freshly isolated primary human CD3^+ T cells (1×10^6/ml) were cultured in 96-well flat-bottom wells in serum free IMDM or RPMI 1640 medium, respectively, both supplemented with L-glutamine and antibiotics, for 6 and 24 hrs at 37° C. (95% humidity, 5% CO2) with 10 μM, 100 μM or 1 mM of the peptides. Untreated cells served as a control. Cell viability was determined by propidium iodide (PI) exclusion by flow cytometry as described (Goichberg, P., et al., 2006).
In order to test cytotoxicity of the peptides, human pre-B-ALL G2 cells and freshly isolated primary human CD3^+ T cells (1×10^6/ml) were cultured in with 10 μM, 100 μM or 1 mM of TL-1, AK-1 and cyclic TL-1, as described in the Material and Methods. All tested peptides were not toxic for G2 cells (FIG. 1) as well as for primary human T cells at 10 μM and 100 μM. Even in the highest concentration, 1 mM, the peptides killed only 8-12% and 14-16% cells treated for 6 and 24 hrs, respectively, indicating a very low cytotoxicity of the peptides.

[2] = test system: C57BL/6 mice; assay: Mobilization assay: hematopoietic progenitor cells (CFU from PB MNC); type: in vivo, mouse
Description: FIG. 3. Dose-response effect of TL-1 and AK-1 on mobilization of hematopoietic progenitor cells to peripheral blood. C57BL/6 mice were s.c. injected with 1, 5 or 10 mg/kg of TL-1 or AK-1. Control mice were injected with PBS. After 1-1.5 h, mice were sacrificed, peripheral blood mononuclear cells (PB MNC) were separated by Ficoll, seeded into the methylcellulose, and the number of colony-forming units (CFU) was estimated. Data shown are the number of CFU per 2×10^5 seeded PB MNC cells. Vertical bars represent standard deviation of duplicate experiments. *P<0.05 compared to control.
FIG. 5. TL-1 synergizes with G-CSF to mobilize hematopoietic progenitor cells to peripheral blood. C57BL/6 mice were s.c. injected with 5 mg/kg of AMD3100 (AMD), TL-1, AK-1, TL-1+AMD3100, or AK-1+AMD3100. Other mice were injected with G-CSF, alone or with TL-1 or AMD3100. Control mice were injected with PBS. After 1-1.5 h, mice were sacrificed, peripheral blood mononuclear cells (PB MNC) were separated by Ficoll, seeded into the methylcellulose, and the number of colony-forming units (CFU) was estimated. Data shown are the number of CFU per 2×10^5 seeded PB MNC cells. Vertical bars represent standard deviation of duplicate experiments. *P<0.05 compared to control.
C57BL/6 mice were injected s.c. with PBS (control), 5 mg/kg AMD3100, or one of the peptides TL-1, cyclic TL-1 and AK-1, at various doses. Another group of mice was s.c. injected with 5 mg/kg AMD3100 together with TL-1, or cyclic TL-1, or AK-1 (all peptides at 5 mg/kg), 1-1.5 hr before sacrifice. An additional group of mice was s.c. injected with-G-CSF at a dose of 5 μg/mouse once a day for 5 days. Mice were sacrificed 4 hrs post last G-CSF injection; 1-1.5 before sacrifice, mice were injected with TL-1, cyclic TL-1 or AK-1, all at 5 mg/kg. Peripheral blood (PB) was collected from mice by cardiac puncture into heparin containing tubes and the number of white blood cells (WBC) per 1 mL of blood was calculated. The tubes were centrifuged, plasma was collected and kept at −20° C. until tested. In order to evaluate the number of progenitor cells, PB mononuclear cells were isolated using Ficoll gradient centrifugation, and seeded (2×10^5 cells/plate) in methylcellulose with cytokines as described (Spiegel, A., et al., 2004, Goichberg, P., et al., 2006). Colonies, reflecting colony-forming units (CFU), were scored after 7 days.
In the same experiments, blood mononuclear cells were collected and tested for the presence of colony-forming cells reflecting the number of HPC.

[3] = test system: MG-63 cells; assay: SDF-1, bFGF and HGF secretion by stromal cells (ELISA of supernatants); type: cell-based, human; settings: 10 μM, compared with untreated cells
Description: FIGS. 7A-7F. Effect of TL-1, AK-1 and cyclic TL-1 on SDF-1, bFGF and HGF secretion by different stromal cell lines. MS-5, MBA-15 and MG-63 cells were co-cultured with 10 μM TL-1, AK-1 or cyclic TL-1 in the serum free medium for 6 hrs, or without added peptide (UT). Levels of SDF-1 (A-C), bFGF (D) and HGF (E, F) were detected in the collected supernatants by ELISA. Data shown are the mean±SD of 2 separate experiments. *P<0.05 compared to control.
SDF-1 levels in tested samples were determined by ELISA as described (Kalinkovich, A., et al., 2006) where the K15C monoclonal antibodies (mAb, INRA, Paris, France) recognizing the first three amino acids of SDF-1 were utilized as a capture Ab (10 μg/mL) in order to measure levels of intact, non-cleaved SDF-1. Levels of basic FGF (bFGF) and HGF in tested samples were determined by using corresponding capture mAbs and polyclonal biotynilated Abs (R&D Systems) as recommended by the manufacturer. In order to examine SDF-1, bFGF and HGF levels in cell supernatants, MS-5, MBA-15 and MG-63 cells were seeded in 24-well Costar wells and cultivated in RPMI 1640 or αMEM Eagle medium, respectively, with 10% FCS. […]
In order to examine the capability of the peptides to induce secretion of other proteins, the levels of Hepatocyte growth factor (HGF) and Basic fibroblast growth factor (bFGF) were detected in the same supernatants.

N=C(N)NCCC[C@@H]1NC(=O)CNC(=O)[C@H](CCCNC(=N)N)NC(=O)[C@H](CCCCN)NC(=O)[C@H](CCCCN)NC(=O)[C@H](CCCNC(=N)N)NC(=O)[C@H](CCCNC(=N)N)NC(=O)[C@H](CS)NC(=O)[C@H](CS)NC(=O)[C@H](CCCCN)NC1=O [cyclic TL-1, 1,10-cyclo[RGRKCCRRKK]] (cyclo(CCRRKKRGRK))
cellular toxicity (percentage of PI+ dead cells) [1]: Low cellular toxicity
HPC mobilization (colony-forming cells) ([2]; 1 mg/kg s.c.): did not induce mobilization of HPC
HPC mobilization in combination with AMD3100 ([2]; 5 mg/kg each): inhibited AMD3100-induced mobilization
HPC mobilization, peptide alone in the comparison/combination experiments ([2]; 5 mg/kg s.c.): inhibitory effect
HPC mobilization (colony-forming cells) ([2]; 5 mg/kg s.c., dose response experiments): did not induce mobilization of HPC
HPC mobilization (colony-forming cells) ([2]; 10 mg/kg s.c.): inhibitory effect
levels of SDF-1 in supernatants [3]: ineffective
